Experimental data taken from patent US20100215638A1, “METHOD FOR TREATMENT OF PROSTATE CANCER AND SCREENING OF PATIENTS BENEFITING FROM SAID METHOD” (VALTION TEKNILLINEN TUTKIMUSKESKUS, priority 2006, published 2010).
Where two headings read alike, the source gives them in different places.

How the values were obtained:
Type in all cases: cell-based, human
[1] = test system: ERG-positive prostate cancer cell line VCaP; experiment: Bead-array gene expression with GSEA of MSigDB pathways
Method: Gene expression analysis by bead-arrays. Early passage VCaP and LNCaP cells were grown to approximately 70% confluence before treatments with 300 nM trichostatin A (Sigma) or 500 nM MS-275 (Sigma) for 6 and 12 hours. For androgen ablation, the cells were plated in androgen-deprived medium. 300 nM trichostatin A (Sigma) or 500 nM MS-275 (Sigma) were added for 6 hours and 12 hours before harvesting. Hormone-replacement treatment was performed by supplementing the full RPMI 1640 medium with 10% charcoal-stripped serum. Total RNA was extracted according to the manufacturer's protocol using Trizol reagent (Invitrogen, Carlsbad, Calif.). Integrity of the RNA prior to hybridization was monitored using a Bioanalyzer 2100 (Agilent, Santa Clara, Calif.) (according to manufacturer's instruction). […] The arrays were scanned with the BeadArray Reader (Illumina).
Statistical analysis. The raw data was quantile-normalized and analyzed by using the R/Bioconductor software (http://www.r-project.org/, http://www.bioconductor.org/). Mean for ERG signature genes for at least two replicates per condition was calculated and the treatment values were extracted from controls to illustrate the fold changes presented on Table 5. […]

ERG gene signature = experiment: Bead-array gene expression with GSEA of ERG gene signature reversal; conditions: 12 h treatment, 300 nM TSA or 500 nM MS-275
Method: Gene expression analysis by bead-arrays. Early passage VCaP and LNCaP cells were grown to approximately 70% confluence before treatments with 300 nM trichostatin A (Sigma) or 500 nM MS-275 (Sigma) for 6 and 12 hours. For androgen ablation, the cells were plated in androgen-deprived medium. 300 nM trichostatin A (Sigma) or 500 nM MS-275 (Sigma) were added for 6 hours and 12 hours before harvesting. Hormone-replacement treatment was performed by supplementing the full RPMI 1640 medium with 10% charcoal-stripped serum. Total RNA was extracted according to the manufacturer's protocol using Trizol reagent (Invitrogen, Carlsbad, Calif.). Integrity of the RNA prior to hybridization was monitored using a Bioanalyzer 2100 (Agilent, Santa Clara, Calif.) (according to manufacturer's instruction). 500 ng of purified total RNA was amplified with the TotalPrep Kit (Ambion, Austin, Tex.) and the biotin labelled cRNA was hybridized to Sentrix HumanRef-8 Expression BeadChips (Illumina, San Diego, Calif.). The arrays were scanned with the BeadArray Reader (Illumina).
Statistical analysis. The raw data was quantile-normalized and analyzed by using the R/Bioconductor software (http://www.r-project.org/, http://www.bioconductor.org/). Mean for ERG signature genes for at least two replicates per condition was calculated and the treatment values were extracted from controls to illustrate the fold changes presented on Table 5. Gene set enrichment analysis (GSEA) was performed for the HDAC inhibitor treatment and androgen ablation data with the GSEA software v2.0.1 (http://www.broad.mit.edu/gsea/). Our own previously defined ERG gene signature was used to evaluate the statistical significance of the signature reversal by HDAC inhibitors and androgen ablation (Table 6.). MSigDB gene sets were used for studying the pathways affected by HDAC inhibitors TSA and MS-275 in ERG-positive prostate cancer cell line VCaP (FIGS. 12 and 13).

[2] = test system: VCaP prostate cancer cell; experiment: Cell titer blue assay of cell number after TSA treatment; conditions: 48 h incubation, 384-well plates 2000 cells/well
Method: (§1) FIG. 6. Analysis of the effect of Trichostatin A (TSA) treatment on VCaP and DuCaP prostate cancer cell number by using cell titer blue assay. Briefly, cells were plated in low concentration on 384-well plates (2000 cells/well) and let to attach overnight. Drug containing medium was added and CTB assay measurement with Envision Plate reader were done after 48 h incubation. […] For drawing the figure, cell culture medium only containing well intensities were extracted from actual measurements. Each data point is represented by the mean value of three independent measurements (mean+S.D.). Drug concentrations are presented on x-axis and relative cell number (control level set to 1) on y-axis. Statistical significance ([…]) of the differences between cell amounts in treated wells in comparison to untreated control wells is indicated with star using Student's t-test assuming that the data is unpaired and variance is unequal.

[3] = test system: DuCaP prostate cancer cell; experiment: as above; conditions: 48 h incubation, 384-well plates 2000 cells/well
Method: as §1

CC(/C=C/C(=O)NO)=C\[C@@H](C)C(=O)c1ccc(N(C)C)cc1 [TSA, Trichostatin A]
effect on pathways associated to ERG-positive prostate tumors ([1]; VCaP, GSEA with MSigDB gene sets): reverses the pathways associated to ERG-positive prostate tumors
ES (Enrichement score) (ERG gene signature): −0.75
Gene set (number of genes showing core enrichment/total number of genes in the ERG gene set) (ERG gene signature): 29/47
NES (Normalized enrichment score) (ERG gene signature): −1.63
effect on cell number (relative cell number, cell titer blue assay) [2]: clear dose dependent growth inhibition
effect on cell number (relative cell number, cell titer blue assay) ([2]; listed as Trichostatin A): strong responses
effect on cell number (relative cell number, cell titer blue assay) [3]: clear dose dependent growth inhibition
effect on cell number (relative cell number, cell titer blue assay) ([3]; listed as Trichostatin A): strong responses

Nc1ccccc1NC(=O)c1ccc(CNC(=O)OCc2cccnc2)cc1 [MS-275]
effect on pathways associated to ERG-positive prostate tumors [1]: reverses the pathways associated to ERG-positive prostate tumors
